# From US20090117090A1, “INHIBITION OF GLYCOGEN SYNTHASE KINASE 3 BETA IN ARTERIAL REPAIR AND STENT RE-ENDOTHELIALIZATION” (OTTAWA HEART INSTITUTE RESEARCH CORPORATION, priority 2007, published 2009)
# Read-outs that look alike come from different tables or passages of the source.
# Assays:
# EPCs [1] = experiment: EPC culture and enumeration (AcLDL uptake / UEA-1 dual positive cells); assay type: cell-based, human
# Description: EPCs were isolated and cultured as previously described (17). Briefly, peripheral blood mononuclear cells (PBMCs) were isolated by ficoll gradient centrifugation from either healthy young volunteers or patients with angiographically verified CAD. Blood was collected by venipuncture and anticoagulated with EDTA. 5×10^6 PBMCs were then washed and resuspended in EGM-2 media (Clonetics) and plated on fibronectin coated plates. Media were supplemented with either LiCl (Sigma), GSKI VIII (Calbiochem; Cat. No. 361549; AR-A014418:N-(4-Methoxybenzyl)-N′-(5-nitro-1,3-thiazol-2-yl)urea), or vehicle (DMSO) at the indicated concentrations.
# GSK inhibitor VIII is a GSK-3β isoform specific inhibitor derived from a class of compounds shown to inhibit GSK-3 both in vitro (54) and in vivo (53). After 96 hours of culture, non-adherent cells were removed and the plates washed three times with buffered wash solution. Cells were then incubated for another 72 hours before being labeling, enumeration, or being used in various assays.
# For the task of enumeration EPCs were arbitrarily defined as cells dually positive for AcLDL uptake and ulex europeus agglutinin I (UEAI) binding. […] Plates of cells were again washed, and incubated for a DAPI nuclear counterstain before a coverslip was applied to the well and double positive cells were counted in 6 random high power fields (×200 magnification). […]
# GSK-3β = GSK-3β (Homo sapiens, UniProt P49841); details: cited from earlier work
# EPCs [2] = experiment: EPC apoptosis by propidium iodide flow cytometry; assay type: cell-based, human; details: 2×GSKI; EPCs of healthy controls and CAD patients
# β-catenin = β-catenin nuclear levels by western blot of EPC nuclear extracts; assay type: cell-based, human; details: EPCs cultured in media supplemented with GSKI (2×) vs control media
# Procedure: β-catenin nuclear levels were assayed by western blot of nuclear extracts from both control and treated EPCs. Briefly, nuclei were separated by differential centrifugation and total nuclear protein was extracted. Protein was then run on an acrylamide gel and transferred onto a PVDF membrane overnight. After transfer, the membrane was blocked for one hour in 5% skim milk powder in 0.1% Tween-20 in Tris buffered saline. This was then incubated for 48 hours with primary antibody of a monoclonal anti-phospho-β-catenin (Cell Signaling Technologies) diluted 1:1000 in 5% skim milk powder in TBS-T. After incubation the membrane was then washed 3 times for 5 minutes each with TBS-T. The membrane was then incubated in secondary antibody of goat anti rabbit IgG (H+ L) conjugated with horseradish peroxidase (1:5000 in TBS-T) for 24 hours. The membrane was washed and quantitated using ECL Plus (Amersham Biosciences).
# EPCs [3] = experiment: EPC cell survival assay; assay type: cell-based, human; details: both healthy controls and patients with CAD, n=6
# Procedure: Day seven EPCs were used for all experiments unless otherwise indicated. For the cell survival assay, six high power fields were enumerated on day 7 for each individual. Subsequently, cells were washed and the media changed every four days after which cells were again enumerated. Data are expressed as a percentage of initial cells present on day 7. For apoptosis studies cells from patients and healthy controls were cultured for 7 days. Cells were then lifted and recoated at a density of 2×10^6 mature EPCs per well. The cells were then allowed to incubate for an additional four days prior to being lifted with EDTA supplementation of the media and gentle agitation. Cells were pelleted and resuspended in HBSS. Prior to analysis by flow cytometry, 10 μL of propidium iodide was added to the cell suspension. EPCs were identified by uptake of acLDL-alexa488 (Invitrogen) and UEA-1 FITC labeling in separate experiments. Uptake of propidium iodide identified apoptotic cells. A total of ten thousand events was analyzed and the data expressed as a percentage of total EPCs being apoptotic. All experiments were conducted on a Beckman Coulter Cytomics FC 500 cytometer.
# EPCs [4] = experiment: In vitro prediction of maximal tolerated dose of GSKI in EPC culture; assay type: cell-based, human; details: multiples of IC50 concentration in EGM-2; 1× to 100× tested
# Procedure: In accordance with another aspect of the present invention, local delivery of inhibitor at the site of arterial injury represents an alternative strategy for enhancing arterial repair and mitigating neointima formation. GSKI coated stents (GCSs) were manufactured for use in a rabbit carotid model of stent neointima formation as previously described (27). Prior to implanting these GCSs, in vitro experiments were performed in order to predict the maximal tolerated dose of GSKI we could deliver in vivo. EPCs were cultured in EGM-2 supplemented with 1×, 2×, 5×, 10×, 20×, 30×, 40×, 50×, and 100× concentrations of the GSKI. […] To manufacture the GCSs, bare metal stents were coated with muco-gel supplemented with DMSO (vehicle for GSKI) or muco-gel containing 20×GSKI as previously described (27). Once coated, stents were allowed to dry in a sterile environment and packaged aseptically prior to delivery. Stents were deployed in New Zealand white rabbit carotid arteries according to a previous protocol and the stent neointima was subjected to quantitative histomophometry 14 days post-stent deployment (22). […] Despite rapid re-endothelialization of GCSs, a neointima formed in both groups but was 50% smaller in area in GCSs vs. control stents. […]
# VEGF = VEGF secretion by EPCs (ELISA); assay type: cell-based, human; details: 24 hours in VEGF free media
# α-integrin subunits 1-5 = experiment: Quantitative PCR of α-integrin subunits in EPCs; assay type: cell-based, human
# EPCs [5] = experiment: EPC fibronectin adhesion assay; assay type: cell-based, human
# Procedure: Day 7 EPCs were detached from their fibronectin coated plates by incubation with 0.5 mmol EDTA. Cells were pelleted, resuspended in EGM-2 and enumerated. Subsequently, 100,000 EPCs were plated in 24-well fibronectin coated plates and incubated for 30 minutes. After, the wells were washed three times with HBSS and the adherent cells labeled and six random high power fields enumerated. Blocking experiments were performed using a specific VLA-4 antibody (MAB169832, Chemicon) at a concentration of 10 ug/mL and allowing cells to incubate for 2 hours.
# Sequence of GSK-3β (P49841 whole entry, species assumed): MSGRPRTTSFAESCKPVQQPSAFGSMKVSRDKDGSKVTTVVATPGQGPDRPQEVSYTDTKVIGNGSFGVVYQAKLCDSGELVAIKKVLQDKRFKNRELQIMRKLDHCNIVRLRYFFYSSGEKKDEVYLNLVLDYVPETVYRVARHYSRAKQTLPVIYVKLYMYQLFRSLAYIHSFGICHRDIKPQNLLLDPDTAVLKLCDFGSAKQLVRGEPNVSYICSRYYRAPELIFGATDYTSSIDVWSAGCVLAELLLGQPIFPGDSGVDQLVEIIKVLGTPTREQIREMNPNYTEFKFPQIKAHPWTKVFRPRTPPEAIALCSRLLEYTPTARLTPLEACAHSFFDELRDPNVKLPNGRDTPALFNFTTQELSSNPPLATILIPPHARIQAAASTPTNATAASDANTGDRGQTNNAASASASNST
Structure (SMILES),"EPC yield (EPCs [1]; 7 days culture, EPCs from both healthy controls and CAD patients, GSKI at 104 nm and 208 nm)",doses in which LiCl inhibits GSK-3β (GSK-3β) [mM],percentage of apoptotic cells (EPCs [2]),EPC yield (EPCs [1]),nuclear b-catenin levels (β-catenin),EPC survival (long term viability) (EPCs [3]),dose resulting in increased EPC death and attenuated function (EPCs [4]) [×],VEGF secretion by mature EPCs (VEGF),"mRNA levels of α-1, -2, -3 and -5 integrin subunits (α-integrin subunits 1-5; GSKI 1× and 2× vs control)","mRNA of α-4 integrin subunit (α-integrin subunits 1-5; both concentrations of the GSKI (1×, 2×))","EPC adherence, healthy controls (EPCs [5]; EPCs from healthy controls, fibronectin, 30 minutes)","increase in EPC adherence, patients cells (EPCs [5]; EPCs from patients with CAD, fibronectin, 30 minutes) [fold]","number of adherent cells after 30 minutes (EPCs [5]; VLA4 blocking experiment, without antibody)"
"[Cl-].[Li+] [LiCl, lithium chloride]",increases,10 to 20,–,–,–,–,–,–,–,–,–,–,–
"COc1ccc(CNC(=O)Nc2ncc([N+](=O)[O-])s2)cc1 [GSKI, N-(4-Methoxybenzyl)-N′-(5-nitro-1,3-thiazol-2-yl)urea]",–,–,reduction,increase,increased levels,significantly improves long term viability,≥ 30,increase,No difference,upregulation,dose dependent increase,~4,increased
